The record followed here is patent US20220153734A1, “Pyrazolopyridine Compounds For IRE1 Inhibition” (Optikira, LLC, priority 2019, published 2022).

What is called IC50 is the midpoint of a concentration-inhibition curve. The low end stands for higher potency, the high end for lower potency.

The target in assay [1] is T1, IRE1α (Homo sapiens, UniProt O75460).
T1 construct: purchased Signal Chem E31-11G
Nature of the assay: Biochemical assay: inhibition of RNase activity of IRE1α. As to conditions: enzyme 0.325 nM, substrate 100 nM, 20 minutes. In short, it runs like this:
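RNase cleavage monitored as dequenching of a 5′ Alexa Fluor 647/3′ quencher RNA oligo (100 nM), stopped with 5 M urea after 20 min at room temperature. Enzyme 0.325 nM, preceded by 30 min compound pre-incubation; buffer Tris/MgCl2/KCl/DTT/Tween, 4% DMSO final. IC50 from curve fit of % inhibition.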

The subject of assay [2] is ARPE-19 cells stably expressing XBP1 (a.a. 1-376). Nature of the assay: Cellular XBP1 splicing assay (NanoLuc luciferase, thapsigargin). In kind it is cell-based. The conditions noted are these: thapsigargin 150 nM. In short, it runs like this: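 ARPE-19 cells carrying an XBP1(1-376)-NanoLuc splicing reporter were pretreated with compound (10-point ½-log series, 0.117% DMSO) for 30 min, then stressed with 150 nM thapsigargin for 4 h at 37° C. Luminescence was read, and IC50 values came from sigmoidal fits of percent inhibition of control.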

Assay [3] deals with T1, IRE1α. Nature of the assay: Biochemical assay to detect inhibition of kinase activity of IRE1α (ADP-Glo). Here is the method: Biochemical Assays to Detect Inhibition of Kinase Activity of IRE1α
The kinase reactions were performed in 384 well white ProxiPlate-384 Plus plates (PERKIN Elmer 6008280) using 25 mM MOPS assay buffer with 1 mM dithiothreitol, 25 mM MgCl2, 12.5 mM β-glycerophosphate, 5 mM EGTA, and 50 μg/mL BSA. Test compounds were prepared on the day of assay and dispensed using D300 digital dispenser as a 10-point ½ log dilution series in duplicate, normalized to a final DMSO concentration of 3%. Test compounds were pre-incubated for 30 min at room temperature with 10 nM IRE1α kinase (E31-11G from Signal Chem) in 2.5 μL of assay buffer and the reaction started by addition of 2.5 μL of ATP in assay buffer, to give a final ATP concentration of 100 μM and 5 nM IRE1α kinase. After 4 hours incubation at room temperature the reactions were stopped and the kinase activity determined using the ADP-Glo™ reagent from Promega, according to the manufacturer's instructions. Luminescence was measured on a luminometer (EnVision, PerkinElmer) and IC50 values calculated by fitting a sigmoidal curve to percent inhibition of control versus Log10 of compound concentration.
(In general: ADP-Glo turns the ADP formed in a reaction into a luminescent signal.)

T1 sequence (O75460 468-977 limits assumed): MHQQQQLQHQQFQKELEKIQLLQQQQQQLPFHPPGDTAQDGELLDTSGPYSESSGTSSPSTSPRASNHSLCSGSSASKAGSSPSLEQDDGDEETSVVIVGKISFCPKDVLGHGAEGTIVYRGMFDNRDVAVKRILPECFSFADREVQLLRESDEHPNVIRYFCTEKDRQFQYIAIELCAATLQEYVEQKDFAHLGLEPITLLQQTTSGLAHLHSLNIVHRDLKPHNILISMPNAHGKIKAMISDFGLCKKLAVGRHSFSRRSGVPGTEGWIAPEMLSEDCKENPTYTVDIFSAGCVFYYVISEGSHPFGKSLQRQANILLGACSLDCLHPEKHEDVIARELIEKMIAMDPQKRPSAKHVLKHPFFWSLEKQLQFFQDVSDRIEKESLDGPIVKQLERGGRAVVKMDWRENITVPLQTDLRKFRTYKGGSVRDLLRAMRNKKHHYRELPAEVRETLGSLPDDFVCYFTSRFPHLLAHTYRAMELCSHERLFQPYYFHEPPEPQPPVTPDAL

With `CCn1nc(-c2cc(F)c(NS(=O)(=O)c3ccccc3F)cc2F)c2c(N)ncc([C@H]3CC[C@H](NC4COC4)CC3)c21` [Compound A45, N-(4-(4-amino-1-ethyl-7-((1r,4r)-4-(oxetan-3-ylamino)cyclohexyl)-1H-pyrazolo[4,3-c]pyridin-3-yl)-2,5-difluorophenyl)-2-fluorobenzenesulfonamide], the IC50 against IRE1α [1] was found to be 16 nM; in assay [2] (Homo sapiens, ARPE-19, 4 h), 94 nM; against IRE1α [3] it was 6.5 nM.
Regarding `CCn1nc(-c2ccc(NS(=O)(=O)Cc3ccccc3F)c(F)c2)c2c(N)ncc(C3=CCC(NC4COC4)CC3)c21` (single isomer, unassigned) [Compound B26, N-(4-(4-amino-1-ethyl-7-(4-(oxetan-3-ylamino)cyclohex-1-en-1-yl)-1H-pyrazolo[4,3-c]pyridin-3-yl)-2-fluorophenyl)-1-(2-fluorophenyl)methanesulfonamide], the IC50 at IRE1α [1] amounted to 2.7 nM; in assay [2] (4 hour), 22 nM; at IRE1α [3], 4.1 nM.
With `CC(C)n1nc(-c2cc(F)c(NS(=O)(=O)Cc3ccccc3Cl)cc2F)c2c(N)ncc([C@H]3CC[C@H](NC4COC4)CC3)c21` [Compound A47, N-(4-(4-amino-1-isopropyl-7-((1r,4r)-4-(oxetan-3-ylamino)cyclohexyl)-1H-pyrazolo[4,3-c]pyridin-3-yl)-2,5-difluorophenyl)-1-(2-chlorophenyl)methanesulfonamide], the IC50 was found to be 1.3 nM on IRE1α [1]; 5.6 nM in assay [2] (Homo sapiens, ARPE-19, 4 h); 2 nM against IRE1α [3].
As to `CC(C)n1nc(-c2ccc(NS(=O)(=O)c3ccccc3F)c(F)c2)c2c(N)ncc([C@H]3CC[C@H](N(C)C4COC4)CC3)c21` [Compound A46], the IC50 at IRE1α [1] was found to be 7.7 nM; in assay [2] (Homo sapiens, ARPE-19, 4 h) it was 8.4 nM; against IRE1α [3], 3.6 nM.
Turning to `CC(C)n1nc(-c2ccc(NS(=O)(=O)c3ccccc3F)c(F)c2)c2c(N)ncc([C@H]3CC[C@H](NC4COC4)CC3)c21` [Compound A1, N-(4-(4-amino-1-isopropyl-7-((1r,4r)-4-(oxetan-3-ylamino)cyclohexyl)-1H-pyrazolo[4,3-c]pyridin-3-yl)-2-fluorophenyl)-2-fluorobenzenesulfonamide], the IC50 on IRE1α [1] came out at 5.7 nM; in assay [2] (Homo sapiens, ARPE-19, 4 h), 7.9 nM; against IRE1α [3] it was 1.9 nM.
Turning to `CCn1nc(-c2cc(F)c(NS(=O)(=O)Cc3ccccc3F)cc2F)c2c(N)ncc([C@H]3CC[C@H](NC4COC4)CC3)c21` [Compound A43, N-(4-(4-amino-1-ethyl-7-((1r,4r)-4-(oxetan-3-ylamino)cyclohexyl)-1H-pyrazolo[4,3-c]pyridin-3-yl)-2,5-difluorophenyl)-1-(2-fluorophenyl)methanesulfonamide], the IC50 against IRE1α [1] came out at 5.4 nM; in assay [2] (Homo sapiens, ARPE-19, 4 h), 52 nM; against IRE1α [3] it was 3.2 nM.
`CCn1nc(-c2ccc(NS(=O)(=O)Cc3ccccc3Cl)c(F)c2)c2c(N)ncc(C3=CCC(NC4COC4)CC3)c21` (single isomer, unassigned) [Compound B28, N-(4-(4-amino-1-ethyl-7-(4-(oxetan-3-ylamino)cyclohex-1-en-1-yl)-1H-pyrazolo[4,3-c]pyridin-3-yl)-2-fluorophenyl)-1-(2-chlorophenyl)methanesulfonamide]: the figures for the IC50 (against IRE1α [1]; in assay [2] (4 hour); on IRE1α [3]) were 2.4 nM, 27 nM and 3.9 nM, respectively.
In the case of `CC(C)n1nc(-c2ccc(NS(=O)(=O)Cc3ccccc3Cl)c(F)c2)c2c(N)ncc(C3=CCC(NC4COC4)CC3)c21` (single isomer, unassigned) [Compound B12, N-(4-(4-amino-1-isopropyl-7-(4-(oxetan-3-ylamino)cyclohex-1-en-1-yl)-1H-pyrazolo[4,3-c]pyridin-3-yl)-2-fluorophenyl)-1-(2-chlorophenyl)methanesulfonamide], the IC50 on IRE1α [1] turned out to be 1.6 nM; in assay [2] (4 hour), 14 nM; on IRE1α [3] it was 1.8 nM.
With `CC(C)n1nc(-c2cc(F)c(NS(=O)(=O)c3ccccc3Cl)cc2F)c2c(N)ncc(C3=CCC(NC4COC4)CC3)c21` (single isomer, unassigned) [Compound B10, N-(4-(4-amino-1-isopropyl-7-(4-(oxetan-3-ylamino)cyc1ohex-1-en-1-yl)-1H-pyrazolo[4,3-c]pyridin-3-yl)-2,5-difluorophenyl)-2-chlorobenzenesulfonamide], the figures for the IC50 (at IRE1α [1]; in assay [2] (4 hour); against IRE1α [3]) were 13 nM, 57 nM and 7 nM, respectively.
For `CCn1nc(-c2ccc(NS(=O)(=O)c3ccccc3Cl)c(F)c2)c2c(N)ncc([C@H]3CC[C@H](NC4COC4)CC3)c21` [Compound A52, N-(4-(4-amino-1-ethyl-7-((1r,4r)-4-(oxetan-3-ylamino)cyclohexyl)-1H-pyrazolo[4,3-c]pyridin-3-yl)-2-fluorophenyl)-2-chlorobenzenesulfonamide], the IC50 against IRE1α [1] turned out to be 6.1 nM; in assay [2] (Homo sapiens, ARPE-19, 4 h), 15 nM; against IRE1α [3] it was 4.6 nM.
Turning to `CC(C)n1nc(-c2ccc(NS(=O)(=O)c3ccccc3Cl)c(F)c2)c2c(N)ncc([C@H]3CC[C@H](NC4COC4)CC3)c21` [Compound A34, N-(4-(4-amino-1-isopropyl-7-((1r,4r)-4-(oxetan-3-ylamino)cyclohexyl)-1H-pyrazolo[4,3-c]pyridin-3-yl)-2-fluorophenyl)-2-chlorobenzenesulfonamide], the 50% inhibitory concentration (IC50) against IRE1α [1] is 3.5 nM; in assay [2] (Homo sapiens, ARPE-19, 4 h) it was 4.3 nM; on IRE1α [3], 3 nM.
Regarding `CCn1nc(-c2cc(F)c(NS(=O)(=O)Cc3ccccc3Cl)cc2F)c2c(N)ncc([C@H]3CC[C@H](NC4COC4)CC3)c21` [Compound A42, N-(4-(4-amino-1-ethyl-7-((1r,4r)-4-(oxetan-3-ylamino)cyclohexyl)-1H-pyrazolo[4,3-c]pyridin-3-yl)-2,5-difluorophenyl)-1-(2-chlorophenyl)methanesulfonamide], the IC50 at IRE1α [1] came out at 3.2 nM; in assay [2] (Homo sapiens, ARPE-19, 4 h), 19 nM; at IRE1α [3], 3 nM.
As to `CCn1nc(-c2ccc(NS(=O)(=O)Cc3ccccc3F)c(F)c2)c2c(N)ncc([C@H]3CC[C@H](NC4COC4)CC3)c21` [Compound A53, N-(4-(4-amino-1-ethyl-7-((1r,4r)-4-(oxetan-3-ylamino)cyclohexyl)-1H-pyrazolo[4,3-c]pyridin-3-yl)-2-fluorophenyl)-1-(2-fluorophenyl)methanesulfonamide], the IC50 against IRE1α [1] was 1.5 nM; in assay [2] (Homo sapiens, ARPE-19, 4 h) it was 9.2 nM; on IRE1α [3], 1.9 nM.
On to `CC(C)n1nc(-c2ccc(NS(=O)(=O)Cc3ccccc3F)c(F)c2)c2c(N)ncc(C3=CCC(NC4COC4)CC3)c21` (single isomer, unassigned) [Compound B2, N-(4-(4-amino-1-isopropyl-7-(4-(oxetan-3-ylamino)cyclohex-1-en-1-yl)-1H-pyrazolo[4,3-c]pyridin-3-yl)-2-fluorophenyl)-1-(2-fluorophenyl)methanesulfonamide], for which the IC50 on IRE1α [1] was 0.8 nM; in assay [2] (4 hour) it was 6.5 nM; against IRE1α [3], 1.9 nM.
With `CC(C)n1nc(-c2cc(F)c(NS(=O)(=O)c3ccccc3F)cc2F)c2c(N)ncc([C@H]3CC[C@H](NC4COC4)CC3)c21` [Compound A50, N-(4-(4-amino-1-isopropyl-7-((1r,4r)-4-(oxetan-3-ylamino)cyclohexyl)-1H-pyrazolo[4,3-c]pyridin-3-yl)-2,5-difluorophenyl)-2-fluorobenzenesulfonamide], the IC50 against IRE1α [1] came to 6.9 nM; in assay [2] (Homo sapiens, ARPE-19, 4 h), 17 nM; on IRE1α [3], 3.3 nM.
Turning to `CC(C)n1nc(-c2cc(F)c(NS(=O)(=O)c3ccccc3Cl)cc2F)c2c(N)ncc([C@H]3CC[C@H](NC4COC4)CC3)c21` [Compound A49, N-(4-(4-amino-1-isopropyl-7-((1r,4r)-4-(oxetan-3-ylamino)cyclohexyl)-1H-pyrazolo[4,3-c]pyridin-3-yl)-2,5-difluorophenyl)-2-chlorobenzenesulfonamide], the IC50 against IRE1α [1] came out at 6 nM; in assay [2] (Homo sapiens, ARPE-19, 4 h), 4.3 nM; at IRE1α [3], 2.1 nM.
For `Nc1ncc([C@H]2CC[C@H](NC3COC3)CC2)c2c1c(-c1ccc(NS(=O)(=O)c3ccccc3F)c(F)c1)nn2C1CC1` [Compound A41, N-(4-(4-amino-1-cyclopropyl-7-((1r,4r)-4-(oxetan-3-ylamino)cyclohexyl)-1H-pyrazolo[4,3-c]pyridin-3-yl)-2-fluorophenyl)-2-fluorobenzenesulfonamide], the IC50 was found to be 8 nM against IRE1α [1]; 16 nM in assay [2] (Homo sapiens, ARPE-19, 4 h); 4.3 nM against IRE1α [3].
